# Experimental data: patent publication US20100204161A1, “Substances and Pharmaceutical Compositions for the Inhibition of Glyoxalases and Their Use Against Bacteria” (BIOMAC PRIVATINSTITUT FUR MEDIZINISHE UND ZAHMEDIZ …, priority 2005, published 2010)
# How the values were obtained:
# [1] = test system: biofilms (biofilm-forming microorganisms from pipe water); assay: Destruction of biofilms on contaminated silicone surfaces (colony forming units); format: cell-based; settings: normalized to 1 cm2 inner tube surface
# Method: Biofilms were allowed to generate in a silicon tube system according to Gebel et al. (2005). In short, pipe water from a public water distributor was used as the source of biofilm-forming microorganisms. Water flow was at about 20 l per hour through silicon tubes from two commercial suppliers with inner diameters of 4 mm for 30 days at 25° C. After that the tubes were emptied, sealed at both ends and treated on their outer surface with 0.2% peroxoacetic acid for 1 hour. Tubes were then rinsed with sterile water and afterwards cut into pieces of 5 cm length each using a sterile scalpel. Pieces obtained this way were then dipped into solutions which contained the substance to be tested or respective controls. 25 ml of the test solutions were used in closed Falcon tubes (50 ml). […] Tubes were opened over their full length with scissors and the material deposited at the original inner surfaces of the tubes homogenized in 10 ml of saline (9 g NaCl/l water). Dilutions were made (decimal steps to 10^4) and 0.1 ml of these solutions plated onto test agar plates (1 l contained 0.5 g yeast extract, 0.5 g peptone, 0.5 g casein hydrolysate, 0.5 g starch. 0.3 g potassium hydrogen phosphate, 24 mg magnesium sulphate, 0.3 g sodium pyruvate, 15 g agar). Plates were incubated for seven days at 20° C. Colonies which formed were counted on each plate independent of their appearance and color. […] Two dilutions must be consistent in colony numbers, taken into consideration the respective dilution factors. Numbers were normalized to 1 cm2 of the inner tube surface. Each substance was analysed in duplicates. Biofilms were treated with water (control), ethyl pyruvate […] Numbers are given for each of the different silicon tubes used.
# [2] = test system: primary human skin fibroblasts; assay: Vitality of primary human fibroblasts (dye exclusion count); format: cell-based; settings: 1-50 mM, serum free medium, 24 hours; FIG. 7
# Method: An identical number (10^4 cells per well) of primary human skin fibroblasts were inoculated in 24-well plates (Greiner, no. 662160) and were cultured in DMEM (Gibco; no. 41966-092) in the presence of 10% calf serum (Biochrom, S0113/5), 2 mM L-glutamine (Gibco; no. 25030-024), penicillin/streptomycin (100 units penicillin/ml; 100 μg streptomycin/ml, Gibco; no. 15140/122), 5 mg % ascorbic acid (Serva, no. 14030.02) at 37° C., 5% CO2 and 95% humidity. The primary human fibroblasts were prepared according to the instructions of Birkenmeier et al. (1998). After reaching 50% confluency the medium was by fresh serum free medium. Thereafter the following supplements were added to the cells: preparation 1 (equivalent volume of serum free (SF) medium, blank); preparation 2 (1 mM DEL or 1 mM LEL or 1 mM EP); preparation 3 (5 mM DEL or 5 mM LEL or 5 mM EP), preparation 4 (10 mM DEL or 10 mM LEL or 10 mM EP), preparation 5 (20 mM DEL or 20 mM LEL or 20 mM EP), preparation 6 (50 mM DEL or 50 mM LEL or 50 mM EP). The culture was continued at 37° C., 5% CO2 and 95% humidity for 24 hours. Thereafter the supernatants were removed and 100 μl of a 50% […] solution was added to the wells. After washing the cells with medium the unstained and stained cells were counted under the light optical microscope comprising a coordinate plane. Cells stained blue were assessed as avital, unstained cells as vital. The percentage of unstained cells of the total number of cells corresponds to the vitality of the cells.
# yeast glyoxalase I = biological target: T1, yeast glyoxalase I (Saccharomyces cerevisiae, UniProt P50107); assay: Enzymatic activity of yeast glyoxalase I (formation of S-D-lactoyl-glutathione, 240 nm); format: biochemical; settings: for Influence on the enzymatic activity of yeast glyoxalase I: increasing concentrations (0-30 mM in Example 5), FIG. 1-3
# T1 construct: purchased Sigma G-4252
# T1 sequence (P50107 1-326): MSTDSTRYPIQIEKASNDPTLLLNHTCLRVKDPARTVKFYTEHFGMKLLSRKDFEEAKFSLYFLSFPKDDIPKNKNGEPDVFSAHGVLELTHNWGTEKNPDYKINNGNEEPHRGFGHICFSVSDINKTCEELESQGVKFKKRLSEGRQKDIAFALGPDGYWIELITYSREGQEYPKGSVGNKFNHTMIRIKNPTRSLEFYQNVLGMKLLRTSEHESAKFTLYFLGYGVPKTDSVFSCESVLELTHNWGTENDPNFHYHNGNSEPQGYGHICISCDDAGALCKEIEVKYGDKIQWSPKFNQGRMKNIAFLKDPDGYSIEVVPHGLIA
# Method: Measuring glyoxalase I (E.C.4.4.1.5, lactoyl-glutathione lyase Sigma, G-4252) was performed according to the instructions of McLellan and Thornalley (1989). The principle is based on measuring the initial rate of formation of S-D-lactoyl-glutathione from methylglyoxal (Sigma, MO252, 40%) and reduced L-glutathione (Aldrich, G-4251, >99%). The formation of the product is observed using the extinction coefficient e=2.86 mM-1 cm-1 at 240 nm. The measurement was performed in 50 mM sodium phosphate buffer, pH 7.0. For that purpose 2 mM methylglyoxal and 2 mM reduced glutathione were incubated for 2 minutes at 30° C. for the formation of the hemithioacetal. Thereafter 20 μl of a 1 to 1000 dilution of the glyoxalase I (Sigma, G-4252) was added to 1 ml of the measuring reagent to start the reaction.
# Glyoxalase activity (IU) corresponds to the amount of enzyme forming 1 μmol of S-D-lactoyl-glutathione/min.
# Determination of glyoxalase I activity was performed according to the general protocol as described above. The influence of ethyl pyruvate on enzyme activity was investigated by addition of increasing concentrations of EP (Sigma; no. E4, 780-8; lot. S18972-513) to the measuring reagent.
# Determination of glyoxalase I activity was performed according to the general protocol as described above. The influence of compounds of the general formula (I), (II), and (III) on the activity of the enzyme was investigated by addition of increasing concentrations of these compounds to the preparation. The IC50-values were calculated from inhibition curves of each compound.
# Determination of glyoxalase I activity was performed according to the general protocol as described above. The influence of 2-oxopropanethioic acid S-ethyl ester on the activity of the enzyme was investigated by addition of increasing concentrations of SE to the preparation for the measurement.
# Determination of glyoxalase I activity was performed according to the general protocol as described above. The influence of effectors on the enzymatic activity was investigated by addition of increasing concentrations (0-30 mM) of EP (Sigma; no. E4, 780-8; lot. S18972-513) (triangle), BP (prepared according to the instructions of patent JP 11080089; 98%) (circle) and BL (Fluka, 69819; lot. 443090/1 21503090) (squares) to the measuring reagent (FIG. 3).
# [3] = test system: NAD-dependent lactate dehydrogenases; assay: Interconversion by NAD-dependent lactate dehydrogenases; format: in vitro ADME; settings: inventors' own measurements
compound,measurement,setting,value
"CC(=O)OO [Peroxo acetic acid, peroxoacetic acid, reference compound]",Colony forming units derivable from biofilms after treatment,"[1]; 0.1%, 30 min, first silicon tube",8.2 × 10^3 colony forming units
same,Colony forming units derivable from biofilms after treatment,"[1]; 0.1%, 30 min, second silicon tube",9.3 × 10^3 colony forming units
same,Colony forming units derivable from biofilms after treatment,"[1]; 0.1%, 120 min, first silicon tube",3.1 × 10^3 colony forming units
same,Colony forming units derivable from biofilms after treatment,"[1]; 0.1%, 120 min, second silicon tube",4.7 × 10^3 colony forming units
CCOC(=O)[C@H](C)O [(−)-Ethyl L-Lactate],Effect on the vitality of primary human fibroblasts,[2],not toxic over the concentration range investigated
CCCCOC(=O)[C@H](C)O [(−)-Butyl L-Lactate],Influence on the enzymatic activity of yeast glyoxalase I,yeast glyoxalase I,does not influence the reaction of glyoxalase
CCOC(=O)[C@@H](C)O [(+)-Ethyl D-Lactate],Effect on the vitality of primary human fibroblasts,[2],not toxic over the concentration range investigated
CCCCOC(=O)C(C)O (stereo not drawn) [Butyl lactate],Transformation by NAD-dependent lactate dehydrogenases,[3],"to a lesser degree than ethyl lactate, also be transformed"
"CCOC(C)=O [Ester control, ethyl acetate, reference compound]",Colony forming units derivable from biofilms after treatment,"[1]; 25 mM, 30 min, first silicon tube",5.1 × 10^5 colony forming units
same,Colony forming units derivable from biofilms after treatment,"[1]; 25 mM, 30 min, second silicon tube",6.5 × 10^5 colony forming units
same,Colony forming units derivable from biofilms after treatment,"[1]; 25 mM, 120 min, first silicon tube",7.0 × 10^4 colony forming units
same,Colony forming units derivable from biofilms after treatment,"[1]; 25 mM, 120 min, second silicon tube",1.1 × 10^5 colony forming units
"CCSC(=O)C(C)=O [SE, 2-Oxopropanethioic acid S-ethyl ester]",Influence on the enzymatic activity of yeast glyoxalase I,yeast glyoxalase I,inhibits the reaction of the glyoxalase I of yeast in a concentration dependent manner
CCCCOC(=O)C(C)=O [Butyl pyruvate],Effect on yeast glyoxalase I compared with EP,"yeast glyoxalase I; 0-30 mM, FIG. 3",the effect of BP is stronger than the effect of EP
same,Influence on the enzymatic activity of yeast glyoxalase I,yeast glyoxalase I,inhibit the activity of glyoxalase I in a concentration dependent manner
